US5604245A, “Use of 4-amino-1-(2-pyridyl)piperidines for the preparation of a medicament for the treatment of conditions deriving from disorders of the serotoninergic systems mediated by 5-HT3 receptors” (priority 1991, dated 1997)
pKi: −log10 of the molar value. Read-outs that look alike come from different tables or passages of the source.

Columns and labels:
5-HT3 receptors [1] = assay: fecal excretion in rats (intestinal prokinetic activity); format: in vivo
Procedure: Said activity was investigated by means of a test aimed at evaluating fecal excretion in rats. […] The compounds of formula (I') to be tested were administered subcutaneously. The treatment schedule provided for 8 animals in each group. At the time of drug treatment, the rectal lumen was manually emptied from any residual feces and the animals were then placed again into their cages. 90 Minutes after the treatment the fecal pellets were collected, their number was determined and their wet weight measured. They were then put in the oven and dried for 10 hours at 40° C. for the determination of the dry weight. The parameter used to evaluate the activity of the test compounds was the dry weight (in grams) of the feces excreted during the 90 minutes following the subcutaneous administration of the test compound.

5-HT3 receptors [2] = target: T1, 5-HT3 receptors (Rattus norvegicus, UniProt P35563); assay: Bezold-Jarish test in the anaesthetised rat (reduction of heart rate); format: in vivo; design: evokes in the anaesthetised rat, a short-lived reduction of heart rate (Bezold-Jarish effect); from tissue; host or cells: whole animal: urethane-anaesthetised Sprague-Dawley rat; conditions: for inhibition of the Bezold-Jarish effect evoked by compounds of formula (I'): anaesthetised rat; for ED50: rat, read-out: ID50 i.v. (dose which inhibits by 50% the heart rate)
T1 sequence (P35563 24-483): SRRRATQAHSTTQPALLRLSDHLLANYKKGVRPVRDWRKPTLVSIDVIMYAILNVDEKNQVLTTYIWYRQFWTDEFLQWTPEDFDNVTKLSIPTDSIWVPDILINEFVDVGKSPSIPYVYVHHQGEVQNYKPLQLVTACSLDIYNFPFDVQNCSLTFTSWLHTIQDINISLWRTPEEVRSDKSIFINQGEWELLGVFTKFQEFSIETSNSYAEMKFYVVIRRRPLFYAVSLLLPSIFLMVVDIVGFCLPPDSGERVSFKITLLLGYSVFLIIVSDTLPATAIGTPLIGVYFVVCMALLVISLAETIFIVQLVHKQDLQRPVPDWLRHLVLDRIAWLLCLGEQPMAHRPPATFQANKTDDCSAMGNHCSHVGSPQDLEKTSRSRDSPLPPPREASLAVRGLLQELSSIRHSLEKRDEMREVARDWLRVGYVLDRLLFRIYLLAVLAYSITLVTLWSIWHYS
Procedure: Selective 5-HT3 agonist activity of the compounds of formula (I') was confirmed in vivo in the Bezold-Jarish test. In this test, intravenous administration of the compounds of formula (I') evokes in the anaesthetised rat, a short-lived reduction of heart rate (Bezold-Jarish effect).
More particularly, the Bezold-Jarish effect evoked by the compounds of formula (I') was evaluated using Sprague-Dawley rats weighing from 200 to 300 g, anaesthetised with urethane 1.25 g/kg i.p. The blood pressure was recorded from the carotid artery and heart rate was evaluated, as pulse frequency, by means of a cardiotachometer. A catheter was inserted into the jugular vein for the administration of the substances.

[3] = system: 5-HT3 receptors (mice striatum); assay: turning test in mice; format: in vivo; conditions: for turning behaviour after injection into the mice striatum: intrastriatal injection, inhibited by 5-HT3 receptor antagonists
Description: CM 57227 was also studied in the "turning" test carried out as described by P. Worms et al. in Life Sciences, 1986, 39, 2199-2208.

5-HT3 receptors [4] = target: T1, 5-HT3 receptors; assay: biochemical; format: binding; design: the cortical tissue from 4 animals was homogenized in 20 volumes of HEPES; from tissue; host or cells: cerebral cortical membranes of male rats (about 200 g)
Procedure: The potency of the compounds of formula (I') in displacing [^3 H]
For the preparation of cerebral membranes, male rats weighing about 200 g and sacrificed by decapitation were employed. […] In summary, the cortical tissue from 4 animals was homogenized in 20 volumes of HEPES and kept at 4° C. until used in the binding assays.

5-HT1A receptors = target: T2, 5-HT1A receptors (Homo sapiens, UniProt P08908); assay: displacement of labelled specific ligand from 5-HT1A receptors; format: binding; conditions: no affinity
T2 sequence (P08908 1-422): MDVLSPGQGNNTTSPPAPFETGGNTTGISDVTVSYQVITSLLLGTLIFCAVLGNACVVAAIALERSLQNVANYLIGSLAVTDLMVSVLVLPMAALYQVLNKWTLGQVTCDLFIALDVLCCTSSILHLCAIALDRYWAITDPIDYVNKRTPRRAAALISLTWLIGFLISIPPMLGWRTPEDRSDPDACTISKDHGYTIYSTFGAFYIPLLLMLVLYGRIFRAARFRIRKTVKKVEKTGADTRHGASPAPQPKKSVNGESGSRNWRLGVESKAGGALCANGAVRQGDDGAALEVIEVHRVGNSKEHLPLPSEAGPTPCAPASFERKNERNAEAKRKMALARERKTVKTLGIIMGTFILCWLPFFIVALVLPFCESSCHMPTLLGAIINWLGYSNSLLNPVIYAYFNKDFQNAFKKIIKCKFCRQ
Description: (§1) This affinity for 5-HT3 receptors is also selective.

5-HT1B receptors = 5-HT1B receptors (Rattus norvegicus, UniProt P28564); assay: displacement of labelled specific ligand from 5-HT1B receptors; format: binding; conditions: no affinity
Sequence of 5-HT1B receptors (P28564 whole entry): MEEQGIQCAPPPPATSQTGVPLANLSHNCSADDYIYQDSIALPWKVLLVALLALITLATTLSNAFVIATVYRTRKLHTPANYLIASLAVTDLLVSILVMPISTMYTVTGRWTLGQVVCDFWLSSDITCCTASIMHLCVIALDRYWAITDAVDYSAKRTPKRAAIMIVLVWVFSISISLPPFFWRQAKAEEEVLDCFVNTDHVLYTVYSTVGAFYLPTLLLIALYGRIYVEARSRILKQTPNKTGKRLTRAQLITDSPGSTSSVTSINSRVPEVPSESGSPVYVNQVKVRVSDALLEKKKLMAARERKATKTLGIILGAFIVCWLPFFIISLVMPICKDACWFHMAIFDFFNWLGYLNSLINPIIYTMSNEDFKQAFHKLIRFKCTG
Description: as §1

serotonin uptake sites = serotonin uptake sites (Homo sapiens, UniProt P31645); assay: [3H] paroxetine displacement test; format: binding
Sequence of serotonin uptake sites (P31645 whole entry): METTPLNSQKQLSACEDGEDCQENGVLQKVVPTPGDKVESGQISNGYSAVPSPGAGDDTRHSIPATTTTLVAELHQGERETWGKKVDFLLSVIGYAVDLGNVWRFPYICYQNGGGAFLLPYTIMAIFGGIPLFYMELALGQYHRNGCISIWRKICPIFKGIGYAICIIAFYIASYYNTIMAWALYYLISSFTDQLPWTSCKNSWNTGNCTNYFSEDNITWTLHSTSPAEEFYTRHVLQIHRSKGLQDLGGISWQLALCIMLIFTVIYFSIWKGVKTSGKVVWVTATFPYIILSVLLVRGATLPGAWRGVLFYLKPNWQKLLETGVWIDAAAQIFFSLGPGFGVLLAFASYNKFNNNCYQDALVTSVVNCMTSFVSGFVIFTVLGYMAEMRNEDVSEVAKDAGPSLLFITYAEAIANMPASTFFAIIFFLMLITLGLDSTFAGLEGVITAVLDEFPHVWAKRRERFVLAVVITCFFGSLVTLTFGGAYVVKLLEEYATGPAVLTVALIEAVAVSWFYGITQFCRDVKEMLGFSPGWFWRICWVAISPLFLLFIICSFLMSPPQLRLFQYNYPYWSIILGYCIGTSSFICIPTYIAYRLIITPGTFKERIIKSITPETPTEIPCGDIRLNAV
Description: as §1

adrenergic sites α2 = assay: displacement of labelled specific ligand from adrenergic sites α2; format: binding; conditions: no affinity
Description: as §1

adrenergic sites α1 = assay: displacement of labelled specific ligand from adrenergic sites α1; format: binding; conditions: no affinity
Description: as §1

adrenergic sites β1 = adrenergic sites β1 (Homo sapiens, UniProt P08588); assay: displacement of labelled specific ligand from adrenergic sites β1; format: binding; conditions: no affinity
Sequence of adrenergic sites β1 (P08588 whole entry): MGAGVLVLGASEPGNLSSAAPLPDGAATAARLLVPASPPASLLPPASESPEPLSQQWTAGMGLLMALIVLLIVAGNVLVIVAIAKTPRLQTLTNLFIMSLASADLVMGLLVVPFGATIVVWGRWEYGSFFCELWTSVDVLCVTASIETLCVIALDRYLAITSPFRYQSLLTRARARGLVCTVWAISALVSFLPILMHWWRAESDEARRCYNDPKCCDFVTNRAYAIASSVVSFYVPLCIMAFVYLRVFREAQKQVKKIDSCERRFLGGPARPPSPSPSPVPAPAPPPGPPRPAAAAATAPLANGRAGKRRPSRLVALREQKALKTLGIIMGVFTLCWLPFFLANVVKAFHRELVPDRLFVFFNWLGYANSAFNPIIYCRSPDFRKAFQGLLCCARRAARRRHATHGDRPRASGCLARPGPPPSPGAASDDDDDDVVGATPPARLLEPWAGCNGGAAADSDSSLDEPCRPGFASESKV
Description: as §1

dopaminergic sites D1 = dopaminergic sites D1 (Homo sapiens, UniProt P21728); assay: displacement of labelled specific ligand from dopaminergic sites D1; format: binding; conditions: no affinity
Sequence of dopaminergic sites D1 (P21728 whole entry): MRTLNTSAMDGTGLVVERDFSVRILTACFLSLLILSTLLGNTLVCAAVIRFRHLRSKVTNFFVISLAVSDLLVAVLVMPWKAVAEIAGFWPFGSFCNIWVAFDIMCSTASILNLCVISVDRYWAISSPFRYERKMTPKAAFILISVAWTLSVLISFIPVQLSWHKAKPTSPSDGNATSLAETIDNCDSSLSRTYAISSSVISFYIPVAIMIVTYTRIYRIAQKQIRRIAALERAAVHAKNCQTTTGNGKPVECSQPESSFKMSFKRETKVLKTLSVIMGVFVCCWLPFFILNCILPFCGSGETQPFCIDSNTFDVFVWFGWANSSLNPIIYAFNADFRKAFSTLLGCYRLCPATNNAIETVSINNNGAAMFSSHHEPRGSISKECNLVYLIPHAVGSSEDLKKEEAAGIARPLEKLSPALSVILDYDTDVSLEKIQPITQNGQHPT
Description: as §1

dopaminergic sites D2 = dopaminergic sites D2 (Homo sapiens, UniProt P14416); assay: displacement of labelled specific ligand from dopaminergic sites D2; format: binding; conditions: no affinity
Sequence of dopaminergic sites D2 (P14416 whole entry): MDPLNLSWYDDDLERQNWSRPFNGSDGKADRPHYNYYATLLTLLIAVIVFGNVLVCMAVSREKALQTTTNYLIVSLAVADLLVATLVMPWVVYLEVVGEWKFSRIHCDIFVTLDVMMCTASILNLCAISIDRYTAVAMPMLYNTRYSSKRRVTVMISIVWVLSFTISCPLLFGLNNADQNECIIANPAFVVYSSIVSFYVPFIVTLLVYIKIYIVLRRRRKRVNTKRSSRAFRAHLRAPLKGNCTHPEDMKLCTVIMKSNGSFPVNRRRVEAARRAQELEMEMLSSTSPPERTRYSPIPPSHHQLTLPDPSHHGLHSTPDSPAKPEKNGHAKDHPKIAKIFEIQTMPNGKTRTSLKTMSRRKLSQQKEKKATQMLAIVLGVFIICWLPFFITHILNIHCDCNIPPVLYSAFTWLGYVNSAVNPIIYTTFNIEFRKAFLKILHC
Description: as §1

central 5-HT3 receptors = target: T3, central 5-HT3 receptors (Mus musculus, UniProt P23979); assay: ex vivo inhibition of [3H] BRL 43694 specific binding to cortical cerebral membranes in mice
T3 construct: from tissue; host or cells: cortical cerebral membranes of mice dosed intraperitoneally
T3 sequence (P23979 24-489): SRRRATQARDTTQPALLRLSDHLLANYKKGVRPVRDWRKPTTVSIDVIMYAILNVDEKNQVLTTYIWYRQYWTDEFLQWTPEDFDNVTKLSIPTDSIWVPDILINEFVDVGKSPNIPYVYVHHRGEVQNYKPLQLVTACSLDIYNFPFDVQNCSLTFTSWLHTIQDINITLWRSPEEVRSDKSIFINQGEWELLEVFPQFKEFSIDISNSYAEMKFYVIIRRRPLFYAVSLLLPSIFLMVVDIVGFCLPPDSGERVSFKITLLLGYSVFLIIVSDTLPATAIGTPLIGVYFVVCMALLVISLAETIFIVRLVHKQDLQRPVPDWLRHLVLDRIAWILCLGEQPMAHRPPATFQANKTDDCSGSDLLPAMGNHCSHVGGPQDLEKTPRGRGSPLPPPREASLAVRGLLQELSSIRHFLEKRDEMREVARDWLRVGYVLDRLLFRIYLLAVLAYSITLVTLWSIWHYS

Q: For `CN1C2CCC1CC(OC(=O)c1c[nH]c3ccccc13)C2` (stereo not shown) [ICS 205-930], which “antagonism of the fecal excretion stimulating activity of compounds of formula (I')” value (5-HT3 receptors [1]) is on record?
A: antagonised

Q: What about the “inhibition of the Bezold-Jarish effect evoked by compounds of formula (I')” value (“inhibition” below) (5-HT3 receptors [2]) of the same compound?
A: inhibited

Q: Which ED50 (5-HT3 receptors [2]; iv) does the source give for `NCCc1c[nH]c2ccc(O)cc12` [serotonin] here?
A: 0.0136 mg/kg

Q: Which “turning behaviour after injection into the mice striatum” value [3] does the source give for `Cc1[nH]c2ccc(O)cc2c1CCN` [2-methylserotonin, reference compound] here?
A: evokes a turning behaviour

Q: What about the pKi (5-HT3 receptors [4]) of the same compound?
A: 5.95

Q: And the ED50 (5-HT3 receptors [2]; anaesthetised Sprague-Dawley rats, intravenous)?
A: 0.005 mg/kg

Q: What does the source list for `Cl.NC1CCN(c2cccc(Cl)n2)CC1` [CM 57227, 4-amino-1-(6-chloro-2-pyridyl)piperidine hydrochloride]?
A: pKi (5-HT1A receptors): < 5.00; pKi (5-HT1B receptors): < 5.00; pKi (serotonin uptake sites): < 5.00; pKi (adrenergic sites α2): < 5.00; pKi (adrenergic sites α1): < 5.00; pKi (adrenergic sites β1): < 5.00; pKi (dopaminergic sites D1): < 5.00; pKi (dopaminergic sites D2): < 5.00; ID50 p.o., extrapolated to zero dilution (central 5-HT3 receptors; mice, oral administration, compared with ID50 i.p. of 1 mg/kg): of the same magnitude order; ED50 (central 5-HT3 receptors; mouse, ip, 0.5 h, read-out: ID50 i.p., extrapolated to zero dilution (dose inhibiting by 50% [3H] BRL 43694 binding), mice, 30 minutes after i.p. administration): 1 mg/kg; ID50 for [3H] BRL 43694 binding compared with ID50 for [3H] paroxetine (serotonin uptake sites) (central 5-HT3 receptors; same experimental conditions): markedly lower; ED50 ([3]; Mus musculus, ip, mice, test compound i.p., ondansetron 1 mg/kg i.p., intrastriatal 2-methylserotonin, read-out: ED50, blockade of ondansetron antagonism of 2-methylserotonin-induced turning behaviour): 0.25 mg/kg; turning behaviour after injection into the mice striatum [3]: evokes a turning behaviour; dry weight of feces excreted during 90 minutes (5-HT3 receptors [1]; 2.5 mg/kg s.c.): about 1.3 g; pKi (5-HT3 receptors [4]; 0.5 nM [3H] BRL 43694, 30 minutes at 25° C., rat cortical membranes, read-out: Ki, displacement of [3H] BRL 43694): 6.71; ED50 (5-HT3 receptors [2]; iv): 0.00829 mg/kg

Q: For `COc1cc(N)c(Cl)cc1C(=O)NC1CN2CCC1CC2` (stereo not shown) [zacopride], which “antagonism of the fecal excretion stimulating activity of compounds of formula (I')” value (5-HT3 receptors [1]) is on record?
A: antagonised

Q: And the “inhibition” value (5-HT3 receptors [2])?
A: inhibited

Q: Which “inhibition” value (5-HT3 receptors [2]) does the source give for `CC[C@@H](CO)NC(=O)[C@@H]1C=C2c3cccc4c3c(cn4C)C[C@H]2N(C)C1` [methysergide] here?
A: not inhibited
